From patent US20080206253A1, “Method For Preventing or Treating Pain in a Mammal” (priority 2005, published 2008)
“Also recorded” adds a separate entry of the source. Marks after values point to notes of the source that are not given here.

Tested on: p38α
Assay: Western blot of spinal p38α protein expression after IT antisense
Format: in vivo, rat
Settings: for p38α protein expression, % Expression Compared to Missense: spinal cord at day six, MS=100%, mean ±SEM n=6; for spinal p38α protein expression compared to missense (MS)-treated animals (in words): five days of IT bolus injections, p38α AS 10-30 μg (30 μg: P<0.05), p38β AS 10-20 μg
From the text: It has previously been shown that inhibition of spinal p38 MAP kinase prevents both inflammation-evoked hyperalgesia and nerve injury-induced allodynia. Ji et al., Neuron 36: 57-68, 2002; Schafers et al., J Neurosci 23: 2517-2521, 2003; Svensson et al., Neuroreport 14: 1153-1157, 2003a.; Svensson et al., J Neurochem 86: 1534-1544, 2003b. It still remains to be determined whether only one or both of the p38 isoforms, that are present in the spinal cord, are involved in modulation of spinal nociceptive processing. Since there is no specific p38 isoform inhibitors available, rats were treated intrathecally with isoform specific antisense oligonucleotides (AS) in order to knock down p38α and p38β respectively. […] There were no differences between the AS-, MS- or vehicle-treated groups in terms of weight gain or motor function. The specificity of the effects of these two antisense oligonucleotides was also examined. Western blot membranes were stripped and re-incubated the with the other p38 isoform antibody. […] In Table 1, antisense was given IT once daily for 5 days and protein expression assayed in spinal chord at day six compared to protein level detected in missense treated animals (MS=100%). Each group represents mean ±SEM, n=6 per group. (*) represents P<0.05 as compared to the missense group.
Antisense oligonucleotides. Three oligonucleotides (a kind gift from ISIS Pharmaceuticals Inc.) with lengths of 20 nucleotides were employed in the study: ISIS 101757 (p38α AS) […], beginning at position 1081 in the rat p38α mRNA; ISIS 107211 (p38βAS) […], beginning at position 439 in the rat p38β mRNA; and ISIS141923 (an universe MS control) […]. These oligonucleotides were synthesized as 2′-methoxyethyl (MOE) phosphorothioate chimeric oligonucleotides in which the first and last five bases contained MOE modifications with a uniform phosphorothioate backbone. Butler et al., Diabetes 51: 1028-1034, 2002. The oligonucleotides were dissolved in artificial cerebrospinal fluid (ACSF) immediately prior to intrathecal administration. The ACSF contained (mM) 151.1 Na+, 2.6 K+, 0.9 Mg2+, 1.3 Ca 2+, 122.7 Cl−, 21.0 HCO3, 2.5 HPO4 and was bubbled with 95% O2/5% CO2 before use to adjust the final pH to 7.2. AS and MS (10-30 μg) was administrated in 10 μl ACSF followed by 10 μl saline daily for five days and behavioral experiments and spinal tissue collection performed on day six.
Western blot. Prior to sacrifice, rats were deeply anesthetized and after decapitation the spinal cords were ejected from the vertebral column by a saline-filled syringe. The lumbar part of the spinal cord was immediately homogenized in extraction buffer (50 mM Tris buffer, pH 8.0, containing 0.5% Triton X-100, 150 mM NaCl, 1 mM EDTA, phosphatase and protease inhibitors) by sonication. The tissue extracts were subjected to denaturing NuPAGE 4-12% Bis-Tris gel electrophoresis and then transferred to nitrocellulose membranes (Micronic Separation Inc. Westborough, Mass.). After blocking nonspecific binding sites with 5% low-fat milk in PBS containing 0.1% Tween 20 (PBS-T) for 1 hour in room temperature, the membranes were incubated with antibodies overnight at 4° C. After washing, the antibody-protein complexes were probed with appropriate secondary antibodies labeled with horseradish peroxidase for 1 hr at room temperature and detected with chemiluminescent reagents (SuperSignal, Pierce, Rockford, Ill.). […]

For “p38α AS: 20-nucleotide 2′-MOE phosphorothioate chimeric antisense AGGTGCTCAGGACTCCATTT, beginning at position 1081 in the rat p38α mRNA (all phosphorothioate, sugars by position and methylation of C not given here; 2'-MOE chimeric (gapmer) antisense)”, the “p38α protein expression, % Expression Compared to Missense” value (IT antisense 10 μg once daily for 5 days) was 59 ± 26%, the “p38α protein expression, % Expression Compared to Missense” value (IT antisense 30 μg once daily for 5 days) was 39 ± 8* % and the “spinal p38α protein expression compared to missense (MS)-treated animals (in words)” value was “significant down-regulation; also recorded: knocked down”.

With “p38β AS: 20-nucleotide 2′-MOE phosphorothioate chimeric antisense GTATGTCCTCCTCGCGTGGA, beginning at position 439 in the rat p38β mRNA (all phosphorothioate, sugars by position and methylation of C not given here; 2'-MOE chimeric (gapmer) antisense)” the “p38α protein expression, % Expression Compared to Missense” value (IT antisense 20 μg once daily for 5 days) was 205 ± 65* % and the “spinal p38α protein expression compared to missense (MS)-treated animals (in words)” value was “somewhat increased”.
